Holding throughout (settings): no ATP
Assay [1] deals with T1, IRAK4 (Homo sapiens, UniProt Q9NWZ3).
T1 sequence (Q9NWZ3 1-460): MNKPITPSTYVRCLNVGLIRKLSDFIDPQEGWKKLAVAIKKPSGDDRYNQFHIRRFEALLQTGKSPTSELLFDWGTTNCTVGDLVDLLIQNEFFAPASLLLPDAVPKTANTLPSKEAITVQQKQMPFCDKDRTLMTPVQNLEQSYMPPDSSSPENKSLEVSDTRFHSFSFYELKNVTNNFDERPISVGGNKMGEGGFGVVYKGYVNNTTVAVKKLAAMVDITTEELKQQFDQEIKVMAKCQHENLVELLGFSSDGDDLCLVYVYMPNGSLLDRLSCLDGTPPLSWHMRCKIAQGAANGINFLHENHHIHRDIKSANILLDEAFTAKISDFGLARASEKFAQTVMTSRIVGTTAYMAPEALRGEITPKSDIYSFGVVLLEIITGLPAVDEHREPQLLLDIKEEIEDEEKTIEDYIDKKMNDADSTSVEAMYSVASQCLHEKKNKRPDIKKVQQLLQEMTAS
Kind of assay: DiscoverX KINOMEscan active site-directed competition binding, IRAK4.
Text: (§1) Kinase binding data were obtained for various exemplary compounds prepared according to Examples 1-8 using the DiscoverX KINOMEscan® active site-directed competition binding site-directed assay protocol described below. […] As a result, the data report thermodynamic interaction affinities (Kd values), rather than IC50 values that are dependent on ATP concentrations. The assay uses a DNA-tagged version of the protein kinase, and an immobilized ligand bound to a solid support. Compounds that directly or indirectly prevent kinase binding to the immobilized ligand reduce the amount of kinase captured on the solid support, which is detected using an ultra-sensitive qPCR method. Affinity constants reported from the assay have been reported to be independent of the immobilized ligand used that is coupled to the solid support (See supplemental information in Fabian, M. A. et. al., (2005) Nat. Biotechnol. 23, 329-336; Wodicka, L. M. et. al., (2010) Chem. Biol. 17, 1241-1249.)
(§2) Kinase-tagged T7 phage strains were prepared in an E. coli host derived from the BL21 strain. E. coli were grown to log-phase and infected with T7 phage and incubated with shaking at 32 °C until lysis. The lysates were centrifuged and filtered to remove cell debris. The remaining kinases were produced in HEK-293 cells and subsequently tagged with DNA for qPCR detection. Streptavidin-coated magnetic beads were treated with biotinylated small molecule ligands for 30 minutes at room temperature to generate affinity resins for kinase assays. The liganded beads were blocked with excess biotin and washed with blocking buffer (SeaBlock (Pierce), 1% BSA, 0.05% Tween 20, 1 mM DTT) to remove unbound ligand and to reduce non-specific binding. […] Test compounds were prepared as 111x stocks in 100% DMSO. Kds were determined using an 11-point 3-fold compound dilution series with three DMSO control points. All compounds for Kd measurements are distributed by acoustic transfer (non-contact dispensing) in 100% DMSO. The compounds were then diluted directly into the assays such that the final concentration of DMSO was 0.9%. All reactions were performed in polypropylene 384-well plates. Each was a final volume of 0.02 mL. The assay plates were incubated at room temperature with shaking for 1 hour and the affinity beads were washed with wash buffer (1×PBS, 0.05% Tween 20). The beads were then re-suspended in elution buffer (1×PBS, 0.05% Tween 20, 0.5 μM nonbiotinylated affinity ligand) and incubated at room temperature with shaking for 30 minutes. The kinase concentration in the eluates was measured by qPCR. Binding constants (Kds) were calculated with a standard dose-response curve using the Hill equation. The Hill Slope was set to −1. Curves were fitted using a non-linear least square fit with the Levenberg-Marquardt algorithm.
as §1, with “9-12” for “1-8”
(§3) Kinase-tagged T7 phage strains were prepared in an E. coli host derived from the BL21 strain. […]

Assay [2] concerns the target T2, FLT3 ITD (Homo sapiens, UniProt P36888, ITD).
T2 construct: T7 phage/E. coli or HEK-293 expression
T2 sequence (P36888 27-993): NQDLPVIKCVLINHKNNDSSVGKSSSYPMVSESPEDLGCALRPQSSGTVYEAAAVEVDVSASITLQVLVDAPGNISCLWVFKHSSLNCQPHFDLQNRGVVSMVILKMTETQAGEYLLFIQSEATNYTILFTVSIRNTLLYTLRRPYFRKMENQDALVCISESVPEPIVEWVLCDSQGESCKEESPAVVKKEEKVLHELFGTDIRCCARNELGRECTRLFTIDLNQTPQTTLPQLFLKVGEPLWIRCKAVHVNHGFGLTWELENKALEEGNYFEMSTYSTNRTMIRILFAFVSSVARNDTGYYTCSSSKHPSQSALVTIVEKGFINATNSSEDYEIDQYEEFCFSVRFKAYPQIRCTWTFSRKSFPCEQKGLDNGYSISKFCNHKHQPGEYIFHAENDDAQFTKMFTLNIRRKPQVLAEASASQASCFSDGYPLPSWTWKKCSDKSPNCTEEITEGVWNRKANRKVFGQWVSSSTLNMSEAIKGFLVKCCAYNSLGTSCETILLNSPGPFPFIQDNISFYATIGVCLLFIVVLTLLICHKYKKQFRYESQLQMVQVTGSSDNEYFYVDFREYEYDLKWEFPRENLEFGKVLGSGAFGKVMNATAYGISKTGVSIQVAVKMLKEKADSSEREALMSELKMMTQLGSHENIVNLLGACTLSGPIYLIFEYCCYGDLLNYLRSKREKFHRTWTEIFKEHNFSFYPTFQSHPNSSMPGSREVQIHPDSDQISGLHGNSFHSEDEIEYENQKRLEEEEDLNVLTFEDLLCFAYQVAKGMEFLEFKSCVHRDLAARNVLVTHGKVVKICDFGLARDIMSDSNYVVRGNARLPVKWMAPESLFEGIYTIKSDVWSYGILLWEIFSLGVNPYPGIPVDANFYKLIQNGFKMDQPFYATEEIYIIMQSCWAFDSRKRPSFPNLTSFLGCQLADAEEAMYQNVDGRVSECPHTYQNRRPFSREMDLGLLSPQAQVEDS
Kind of assay: DiscoverX KINOMEscan active site-directed competition binding, FLT3 ITD.
Text: as §1, §2
as §1, with “9-12” for “1-8”
as §3

In assay [3] the target is T3, FLT3 ITD, F691L (Homo sapiens, UniProt P36888, F691L/ITD).
T3 construct: F691L gatekeeper
T3 sequence (P36888 27-993 F691L): T2 sequence (P36888 27-993)
Kind of assay: DiscoverX KINOMEscan active site-directed competition binding, FLT3 ITD, F691L.
Text: as §1, §2
as §1, with “9-12” for “1-8”
as §3

A word on the Kd: it is the concentration at which binding is half-saturated. A lower Kd goes with a tighter complex.

Regarding `COc1cn2ncc(-c3nc(N[C@H]4CNCC[C@@H]4F)ncc3F)c2nc1C(C)(C)O` [Compound 6a, 2-(3-(5-fluoro-2-(((3S,4S)-4-fluoropiperidin-3-yl)amino)pyrimidin-4-yl)-6-methoxypyrazolo[1,5-a]pyrimidin-5-yl)propan-2-ol], the figures for the equilibrium dissociation constant (Kd) in assay [1] (Table 18), in assay [2] (Table 18) and in assay [3] (Table 19) were 0.2 nM, 0.23 nM and less than 0.17 nM, respectively.

As to `COc1cn2ncc(-c3nc(N[C@H]4CNCC[C@@H]4F)c(C#N)cc3F)c2nc1C1CC1` [Compound 7, 6-(5-cyclopropyl-6-methoxypyrazolo[1,5-a]pyrimidin-3-yl)-5-fluoro-2-(((3S,4S)-4-fluoropiperidin-3-yl)amino)nicotinonitrile], the results for the Kd in assay [1] (Table 12), in assay [2] (Table 12) and in assay [3] (Table 13) were less than 0.17 nM, 0.41 nM and less than 0.17 nM, respectively.

Take `COc1cn2ncc(-c3cncc(N[C@H]4CNCC[C@@H]4F)n3)c2nc1C1CC1` [Compound 12a, 6-(5-cyclopropyl-6-methoxypyrazolo[1,5-a]pyrimidin-3-yl)-N-((3S,4S)-4-fluoropiperidin-3-yl)pyrazin-2-amine]: the Kd in assay [1] (Table 18) was less than 0.17 nM; in assay [2] (Table 18) it was 0.39 nM; in assay [3] (Table 19), less than 0.17 nM.

For the molecule `COc1cn2ncc(-c3nc(N[C@H]4CNCC[C@@H]4F)c(C#N)cc3F)c2nc1C(C)(C)O` [Compound 10, 5-fluoro-2-(((3S,4S)-4-fluoropiperidin-3-yl)amino)-6-(5-(2-hydroxypropan-2-yl)-6-methoxypyrazolo[1,5-a]pyrimidin-3-yl)nicotinonitrile], the Kd in assay [1] (Table 12) is less than 0.17 nM; in assay [2] (Table 12), 0.28 nM; in assay [3] (Table 13), less than 0.17 nM.

Turning to `COc1cn2ncc(-c3nc(N[C@@H]4CCCNC4)ncc3F)c2nc1C1CC1` [Compound 14a, (R)-4-(5-cyclopropyl-6-methoxypyrazolo[1,5-a]pyrimidin-3-yl)-5-fluoro-N-(piperidin-3-yl)pyrimidin-2-amine], the Kd in assay [1] (Table 18), in assay [2] (Table 18) and in assay [3] (Table 19) was less than 0.17 nM in each case.

In the case of `COc1cn2ncc(-c3nc(N[C@H]4CNCC[C@@H]4F)ncc3F)c2nc1C1CC1` [Compound 15a, 4-(5-cyclopropyl-6-methoxypyrazolo[1,5-a]pyrimidin-3-yl)-5-fluoro-N-((3S,4S)-4-fluoropiperidin-3-yl)pyrimidin-2-amine], the Kd in assay [1] (Table 18) was less than 0.17 nM; in assay [2] (Table 18), 0.25 nM; in assay [3] (Table 19), less than 0.17 nM.

In the case of `COc1cn2ncc(-c3ccnc(N[C@H]4CNCC[C@@H]4F)n3)c2nc1C1CC1` [Compound 7a, 4-(5-cyclopropyl-6-methoxypyrazolo[1,5-a]pyrimidin-3-yl)-N-((3S,4S)-4-fluoropiperidin-3-yl)pyrimidin-2-amine], the values for the Kd in assay [1] (Table 18), in assay [2] (Table 18) and in assay [3] (Table 19) were 0.36 nM, 0.53 nM and less than 0.17 nM, respectively.

On to `COc1cn2ncc(-c3nc(N[C@H]4CNCC[C@@H]4F)c(F)cc3F)c2nc1C(C)(C)O` [Compound 13, 2-(3-(3,5-difluoro-6-(((3S,4S)-4-fluoropiperidin-3-yl)amino)pyridin-2-yl)-6-methoxypyrazolo[1,5-a]pyrimidin-5-yl)propan-2-ol], for which the figures for the Kd in assay [1] (Table 12), in assay [2] (Table 12) and in assay [3] (Table 13) were less than 0.17 nM, 0.21 nM and less than 0.17 nM, respectively.

These data come from US20260374773A1, “MULTI-CYCLIC IRAK AND FLT3 INHIBITING COMPOUNDS AND USES THEREOF” (CHILDREN'S HOSPITAL MEDICAL CENTER, priority 2022, published 2026).
